In US20230086702A1, “SUBSTITUTED 2-AMINO-PYRAZOLYL-[1,2,4]TRIAZOLO[1,5A]PYRIDINE DERIVATIVES AND USE THEREOF” (The Johns Hopkins University, priority 2019, published 2023):

Key:
[1] = molecular target: T1, DLK (Homo sapiens, UniProt Q12852); assay: DLK biochemical assay (TR-FRET, MKK7 phosphorylation)
T1 construct: 10 nM DLK, catalytic domain, Carna Biosiences; purchased Carna Biosciences ('Carna Biosiences' [sic])
T1 sequence (Q12852 125-366 limits assumed): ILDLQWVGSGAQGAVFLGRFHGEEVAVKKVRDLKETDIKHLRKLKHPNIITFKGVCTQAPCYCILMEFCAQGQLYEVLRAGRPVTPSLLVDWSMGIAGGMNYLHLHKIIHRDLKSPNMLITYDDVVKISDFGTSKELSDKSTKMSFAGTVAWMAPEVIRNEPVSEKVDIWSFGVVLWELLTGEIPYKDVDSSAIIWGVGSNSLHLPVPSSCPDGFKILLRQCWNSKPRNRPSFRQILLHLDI
Procedure, shortened: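 TR-FRET read-out (665/Eu ratio) of MKK7 T275/S277 phosphorylation, with inhibition lowering the signal. Final conditions: 10 nM DLK catalytic domain, 15 nM MKK7, 60 μM ATP, 90 min at RT. Detection incubation 16 h at 37° C in 1536-well or 4° C in 384-well format.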

[2] = molecular target: T2, LZK (Homo sapiens, UniProt O43283); assay: LZK biochemical assay (TR-FRET, MKK7 phosphorylation)
T2 construct: 10 nM LZK, catalytic domain, Carna Biosiences in assay buffer; purchased Carna Biosciences ('Carna Biosiences' [sic])
T2 sequence (O43283 168-409 limits assumed): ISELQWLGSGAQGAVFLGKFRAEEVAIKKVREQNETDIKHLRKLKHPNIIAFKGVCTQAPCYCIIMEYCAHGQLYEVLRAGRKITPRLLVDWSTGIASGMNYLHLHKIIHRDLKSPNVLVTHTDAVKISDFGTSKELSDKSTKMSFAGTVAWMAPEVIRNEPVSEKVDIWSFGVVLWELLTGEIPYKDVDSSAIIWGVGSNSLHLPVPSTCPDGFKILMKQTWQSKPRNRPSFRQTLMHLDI
Procedure, shortened: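 Read-out is HTRF: Eu-labelled anti-phospho-MKK7 (T275/S277) and XL665 anti-His, incubated 16 h at 32 °C, with a drop in signal marking inhibition. Reaction beforehand: 10 nM LZK kinase domain, 15 nM His-MKK7, 15 µM ATP (final) for 90 min at room temperature, pH 7.5.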

Row | IC50 [1] [µM] | IC50 [2] [µM] | SMILES
1 | 0.17 | 0.03 | CCC(c1ccc(C(F)(F)F)nc1)n1cc(-c2cc(-c3cc(CO)ccc3Cl)c3nc(N)nn3c2)cn1 (single isomer, unassigned) [II-2, {3-[2-Amino-6-(1-{1-[6-(trifluoromethyl)pyridin-3-yl]propyl}-1H-pyrazol-4-yl)[1,2,4]triazolo[1,5-a]pyridin-8-yl]-4-chlorophenyl}methanol]
2 | 0.003 | 0.013 | CC(C)[C@@H](c1ccc(C(F)(F)F)nc1)n1cc(-c2cc(-c3cnn(CC(F)(F)F)c3)n3nc(N)nc3c2)cn1 [II-140]
3 | 0.12 | 0.097 | CC(C)C(c1ccc(C(F)(F)F)nc1)n1cc(-c2cc(-c3ccnc(C(F)(F)F)c3)n3nc(N)nc3c2)cn1 (single isomer, unassigned) [II-29, 7-(1-{2-Methyl-1-[6-(trifluoromethyl)pyridin-3-yl]propyl}-1H-pyrazol-4-yl)-5-[2-(trifluoromethyl)pyridin-4-yl][1,2,4]triazolo[1,5-a]pyridin-2-amine]
4 | 0.034 | 0.079 | CCC(c1ccc(C(F)(F)F)nc1)n1cc(-c2cc(-c3ccc(=O)n(C(F)F)c3)n3nc(N)nc3c2)cn1 (single isomer, unassigned) [II-180, 5-[2-Amino-7-(1-{1-[6-(trifluoromethyl)pyridin-3-yl]propyl}-1H-pyrazol-4-yl)[1,2,4]triazolo[1,5-a]pyridin-5-yl]-1-(difluoromethyl)pyridin-2(1H)-one]
5 | 0.0012 | 0.0024 | Nc1nc2cc(-c3cnn(C(c4ccc(C(F)(F)F)nc4)C4CCOCC4)c3)cc(-c3ccc(=O)n(C(F)F)c3)n2n1 (single isomer, unassigned) [II-184, 5-[2-Amino-7-(1-{tetrahydro-2H-pyran-4-yl[6-(trifluoromethyl)pyridin-3-yl]methyl}-1H-pyrazol-4-yl)[1,2,4]triazolo[1,5-a]pyridin-5-yl]-1-(difluoromethyl)pyridin-2(1H)-one]
6 | 0.0025 | 0.015 | CC(C)C(c1ccc(C(F)(F)F)nc1)n1cc(-c2cc(-c3cnn(C4CCCC4)c3)n3nc(N)nc3c2)cn1 (centres unmarked) [II-143]
7 | 0.44 | 0.22 | CCC(c1ccc(C(F)F)nc1)n1cc(-c2cc(-c3ccc(C(F)(F)F)nc3)n3nc(N)nc3c2)cn1 (single isomer, unassigned) [II-62, 7-(1-{1-[6-(Difluoromethyl)pyridin-3-yl]propyl}-1H-pyrazol-4-yl)-5-[6-(trifluoromethyl)pyridin-3-yl][1,2,4]triazolo[1,5-a]pyridin-2-amine]
8 | 0.0014 | 0.016 | Nc1nc2cc(-c3cnn(C(c4ccccc4)C4CCNCC4)c3)cc(-c3cnn(CC(F)(F)F)c3)n2n1 (centres unmarked) [II-152]
9 | 0.0042 | 0.026 | CC(C)C(c1ccc(C(F)(F)F)nc1)n1cc(-c2cc(-c3ccc(C4CC4)nc3)c3nc(N)nn3c2)cn1 (racemic) [II-43, 8-(6-Cyclopropylpyridin-3-yl)-6-(1-{2-methyl-1-[6-(trifluoromethyl)pyridin-3-yl]propyl}-1H-pyrazol-4-yl)[1,2,4]triazolo[1,5-a]pyridin-2-amine]
10 | 0.06 | 0.1 | CC(C)C(c1ccc(C(F)(F)F)nc1)n1cc(-c2cc(-c3ccc(C4CC4)nc3)c3nc(N)nn3c2)cn1 (single isomer, unassigned) [II-44]
11 | 0.046 | 0.0067 | Nc1nc2c(-c3cc(CO)ccc3Cl)cc(-c3cnn(C(c4ccc(C(F)(F)F)nc4)C4CCOCC4)c3)cn2n1 (single isomer, unassigned) [II-6, {3-[2-Amino-6-(1-{tetrahydro-2H-pyran-4-yl[6-(trifluoromethyl)pyridin-3-yl]methyl}-1H-pyrazol-4-yl)[1,2,4]triazolo[1,5-a]pyridin-8-yl]-4-chlorophenyl}methanol]
12 | 0.0029 | 0.0047 | Nc1nc2cc(-c3cnn(C(c4ccc(C(F)(F)F)nc4)C4CCOCC4)c3)cc(-c3cnn(CC(F)(F)F)c3)n2n1 (centres unmarked) [II-149]
13 | 0.0063 | 0.0023 | CCC(c1ccc(C(F)(F)F)nc1)n1cc(-c2cc(-c3cc(CO)ccc3Cl)c3nc(N)nn3c2)cn1 (racemic) [II-1, {3-[2-Amino-6-(1-{1-[6-(trifluoromethyl)pyridin-3-yl]propyl}-1H-pyrazol-4-yl)[1,2,4]triazolo[1,5-a]pyridin-8-yl]-4-chlorophenyl}methanol]
14 | 0.24 | 0.69 | CCc1nnc(-c2cc(-c3cnn(Cc4ccccc4)c3)cn3nc(N)nc23)s1 [II-197, 6-(1-Benzyl-1H-pyrazol-4-yl)-8-(5-ethyl-1,3,4-thiadiazol-2-yl)[1,2,4]triazolo[1,5-a]pyridin-2-amine]
15 | 0.012 | 0.015 | CCC(c1ccc(C(F)F)nc1)n1cc(-c2cc(-c3ccc(C4CC4)nc3)n3nc(N)nc3c2)cn1 (racemic) [II-67, 5-(6-Cyclopropylpyridin-3-yl)-7-(1-{1-[6-(difluoromethyl)pyridin-3-yl]propyl}-1H-pyrazol-4-yl)[1,2,4]triazolo[1,5-a]pyridin-2-amine]
16 | 0.0003 | 0.0015 | CCS(=O)(=O)c1cccc(-c2cc(-c3cnn(C(c4ccc(C(F)(F)F)nc4)C4CCOCC4)c3)cn3nc(N)nc23)c1 (single isomer, unassigned) [II-18, 8-[3-(Ethylsulfonyl)phenyl]-6-(1-{tetrahydro-2H-pyran-4-yl[6-(trifluoromethyl)pyridin-3-yl]methyl}-1H-pyrazol-4-yl)[1,2,4]triazolo[1,5-a]pyridin-2-amine]
17 | 0.036 | 0.086 | CCC(c1ccc(C(F)F)nc1)n1cc(-c2cc(-c3ccc(C4CC4)nc3)n3nc(N)nc3c2)cn1 (single isomer, unassigned) [II-68, 5-(6-Cyclopropylpyridin-3-yl)-7-(1-{1-[6-(difluoromethyl)pyridin-3-yl]propyl}-1H-pyrazol-4-yl)[1,2,4]triazolo[1,5-a]pyridin-2-amine]
18 | 0.044 | 0.12 | CC(C)C(c1ccc(C(F)(F)F)nc1)n1cc(-c2cc(-c3ccc(C(F)(F)F)nc3)c3nc(N)nn3c2)cn1 (racemic) [II-40, 6-(1-{2-Methyl-1-[6-(trifluoromethyl)pyridin-3-yl]propyl}-1H-pyrazol-4-yl)-8-[6-(trifluoromethyl)pyridin-3-yl][1,2,4]triazolo[1,5-a]pyridin-2-amine]
19 | 0.069 | 0.17 | CCC(c1ccc(C(F)(F)F)cc1)n1cc(-c2cc(-c3cnn(CC(F)(F)F)c3)n3nc(N)nc3c2)cn1 (centres unmarked) [II-129]
20 | 0.026 | 0.0061 | CCC(c1ccc(C(F)(F)F)nc1)n1cc(-c2cc(-c3ccnc(C4(F)CC4)c3)n3nc(N)nc3c2)cn1 (racemic) [II-31, 5-[2-(1-Fluorocyclopropyl)pyridin-4-yl]-7-(1-{1-[6-(trifluoromethyl)pyridin-3-yl]propyl}-1H-pyrazol-4-yl)[1,2,4]triazolo[1,5-a]pyridin-2-amine]
21 | 0.042 | 0.042 | CC(C)C(c1ccc(C(F)(F)F)nc1)n1cc(-c2cc(-c3ccc(C4(O)CCC4)nc3)n3nc(N)nc3c2)cn1 (single isomer, unassigned) [II-82, 1-{5-[2-Amino-7-(1-{2-methyl-1-[6-(trifluoromethyl)pyridin-3-yl]propyl}-1H-pyrazol-4-yl)[1,2,4]triazolo[1,5-a]pyridin-5-yl]pyridin-2-yl}cyclobutan-1-ol]
22 | 0.021 | 0.016 | Nc1nc2cc(-c3cnn(C(c4ccc(C(F)F)nc4)C4CCOCC4)c3)cc(-c3ccc(C(F)(F)F)nc3)n2n1 (racemic) [II-76, 7-(1-{[6-(Difluoromethyl)pyridin-3-yl](tetrahydro-2H-pyran-4-yl)methyl}-1H-pyrazol-4-yl)-5-[6-(trifluoromethyl)pyridin-3-yl][1,2,4]triazolo[1,5-a]pyridin-2-amine]
23 | 0.033 | 0.12 | Nc1nc2cc(-c3cnn(Cc4ccccc4)c3)cc(-c3ccc(C4CC4)nc3)n2n1 [II-47, 7-(1-Benzyl-1H-pyrazol-4-yl)-5-(6-cyclopropylpyridin-3-yl)[1,2,4]triazolo[1,5-a]pyridin-2-amine]
24 | 0.011 | 0.027 | CC(C)C(c1ccc(C(F)(F)F)nc1)n1cc(-c2cc(-c3cnn(CC(F)(F)F)c3)n3nc(N)nc3c2)cn1 (centres unmarked) [II-139]
25 | 0.0081 | 0.38 | CC[C@@H](c1ccccc1)n1cc(-c2cc(-c3cnn(CCO)c3)c3nc(N)nn3c2)cn1 [II-97, 2-[4-(2-Amino-6-{1-[(1S)-1-phenylpropyl]-1H-pyrazol-4-yl}[1,2,4]triazolo[1,5-a]pyridin-8-yl)-1H-pyrazol-1-yl]ethan-1-ol]
